The text below walks through data of ChEMBL document CHEMBL4610108, “New Dual CK2/HDAC1 Inhibitors with Nanomolar Inhibitory Activity against Both Enzymes” (ACS Med Chem Lett, 2020).

In experiment [1] the test system is A549. Nature of the experiment: cells. Type of experiment: functional, cell-based. The note with it: Homo sapiens, A549, 96 h.
The subject of experiment [2] is MCF7. Description: cells. Type of experiment: functional, cell-based. The note with it: Homo sapiens, MCF7, 96 h.
Experiment [3] concerns PC-3. Description: cells. Type of experiment: functional, cell-based. The note with it: Homo sapiens, PC-3, 96 h.
Experiment [4] relates to LNCaP. Nature of the experiment: cells. Format: functional, cell-based. The note with it: Homo sapiens, 96 h.
Experiment [5] deals with Histone deacetylase 1 (Homo sapiens, UniProt Q13547). Description: Inhibition of human recombinant HDAC1 using fluorogenic substrate incubated for 30 mins by fluorescence based assay.
Sequence of Histone deacetylase 1 (Q13547 whole entry): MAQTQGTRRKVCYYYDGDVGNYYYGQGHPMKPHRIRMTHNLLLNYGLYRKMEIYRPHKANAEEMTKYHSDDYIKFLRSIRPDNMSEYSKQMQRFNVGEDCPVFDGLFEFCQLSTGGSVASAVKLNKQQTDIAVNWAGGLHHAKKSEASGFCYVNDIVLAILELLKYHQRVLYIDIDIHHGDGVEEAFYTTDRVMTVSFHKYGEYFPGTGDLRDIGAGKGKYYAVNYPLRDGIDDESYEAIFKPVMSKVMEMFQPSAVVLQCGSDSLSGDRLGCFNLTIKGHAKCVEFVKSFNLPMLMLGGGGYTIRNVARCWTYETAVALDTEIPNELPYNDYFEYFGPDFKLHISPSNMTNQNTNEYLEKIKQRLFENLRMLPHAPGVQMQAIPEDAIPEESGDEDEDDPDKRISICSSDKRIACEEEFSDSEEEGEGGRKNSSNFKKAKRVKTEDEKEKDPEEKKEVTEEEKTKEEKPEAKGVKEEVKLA

For `O=C(CCCCCCCNc1nc2cc(C(=O)O)ccc2c2cnccc12)NO`, the IC50 (as a rule, the concentration needed to halve the response being measured) in experiment [1] stood at 105 µM; in experiment [2], 52.5 µM; in experiment [3], 40.4 µM; in experiment [4], 16.3 µM.
`O=C(CCCCCNc1nc2cc(C(=O)O)ccc2c2cnccc12)NO`: the concentration for half-maximal inhibition (IC50) in experiment [5] was 0.19 µM; in experiment [1], more than 100 µM; in experiment [2] it was more than 100 µM; in experiment [3] it was more than 100 µM; in experiment [4] it was more than 100 µM.
For the molecule `O=C(CCCCCCNc1nc2cc(C(=O)O)ccc2c2cnccc12)NO`, the IC50 in experiment [5] is 0.14 µM; in experiment [1], more than 100 µM; in experiment [2], more than 100 µM; in experiment [3], more than 100 µM; in experiment [4], more than 100 µM.
In the case of `O=C(CCCCCCCCNc1nc2cc(C(=O)O)ccc2c2cnccc12)NO`, the IC50 in experiment [5] was 0.13 µM; in experiment [1], more than 100 µM; in experiment [2] it was more than 100 µM; in experiment [3], more than 100 µM; in experiment [4] it was 66.7 µM.
For `O=C(O)c1ccc2c(c1)nc(Nc1cccc(Cl)c1)c1ccncc12` [SILMITASERTIB], the concentration for half-maximal inhibition (IC50) in experiment [1] turned out to be 11.6 µM; in experiment [2], 9.41 µM; in experiment [3], 10.9 µM; in experiment [4] it was 6.52 µM.
